PubChem BioAssay AID2060900 (Molecular Pharmacology Branch, DTP, NCI, 2025)

Tested on: 521955-158-R2-J5-PDC complex spheroids, viability
Experiment: Anticancer human tumor 521955-158-R2-J5-PDC patient-derived pancreatic carcinoma cell line growth inhibition [RAS]
Conditions: for IC50: curve of first compound; for viability, T/C: stronger effect = lower value
In short: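 Tumour cells grown as complex spheroids with HUVEC endothelial cells and mesenchymal stem cells, treated with RAS pathway inhibitor combinations. Each agent spans half-log steps from near clinical Cmax, or 10 microM where Cmax is unknown.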
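Further: compound exposure lasted seven days before the viability read.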
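Wherever viability, T/C is given: spheroids also contain HUVEC endothelial cells and mesenchymal stem cells as stroma.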

Work on CC1(C)CCC(Nc2ncc(C(F)(F)F)c(-c3c[nH]c4c(P(C)(C)=O)c(C#N)ccc34)n2)CN1 (configuration not stated) + CCn1c(-c2cccnc2C(C)OC)c2c3cc(ccc31)N1CCOC(CC(NC(=O)C(C(C)C)N(C)C(=O)C3(F)CCN(C(=O)C#CC(C)(C)N(C)C)CC3)C(=O)N3CCCC(N3)C(=O)OCC(C)(C)C2)C1 yielded an IC50 (second compound 0.000949 µM) of 7.81 nM, an IC50 (second compound 0.003 µM) of 8.8 nM and an IC50 (second compound 0.00949 µM) of 8.56 nM. For the same compound, the IC50 (second compound 0.03 µM) was 6.8 nM, the IC50 (second compound 0.0949 µM) was 7.28 nM and the IC50 (second compound 0.3 µM) was 5.8 nM. For the same compound, the viability, T/C (second compound 0.000949 µM, first compound 0.000949 µM) was 88.5%, the viability, T/C (second compound 0.000949 µM, first compound 0.003 µM) was 60.9% and the viability, T/C (second compound 0.000949 µM, first compound 0.00949 µM) was 50.1%. The viability, T/C (second compound 0.000949 µM, first compound 0.03 µM) was 39.2%, the viability, T/C (second compound 0.000949 µM, first compound 0.0949 µM) was 40.7% and the viability, T/C (second compound 0.000949 µM, first compound 0.3 µM) was 43%. For the same compound, the viability, T/C (second compound 0.003 µM, first compound 0.000949 µM) was 106%, the viability, T/C (second compound 0.003 µM, first compound 0.003 µM) was 65.2% and the viability, T/C (second compound 0.003 µM, first compound 0.00949 µM) was 49.9%. The viability, T/C (second compound 0.003 µM, first compound 0.03 µM) was 44%, the viability, T/C (second compound 0.003 µM, first compound 0.0949 µM) was 39.7% and the viability, T/C (second compound 0.003 µM, first compound 0.3 µM) was 45.7%. The viability, T/C (second compound 0.00949 µM, first compound 0.000949 µM) was 83.2%, the viability, T/C (second compound 0.00949 µM, first compound 0.003 µM) was 62.5% and the viability, T/C (second compound 0.00949 µM, first compound 0.00949 µM) was 52%. The viability, T/C (second compound 0.00949 µM, first compound 0.03 µM) was 36.2%, the viability, T/C (second compound 0.00949 µM, first compound 0.0949 µM) was 42.5% and the viability, T/C (second compound 0.00949 µM, first compound 0.3 µM) was 54.1%. It also gave a viability, T/C (second compound 0.03 µM, first compound 0.000949 µM) of 90.5%, a viability, T/C (second compound 0.03 µM, first compound 0.003 µM) of 68.7% and a viability, T/C (second compound 0.03 µM, first compound 0.00949 µM) of 40.9%. It also gave a viability, T/C (second compound 0.03 µM, first compound 0.03 µM) of 38.4%, a viability, T/C (second compound 0.03 µM, first compound 0.0949 µM) of 41.8% and a viability, T/C (second compound 0.03 µM, first compound 0.3 µM) of 48.4%. For the same compound, the viability, T/C (second compound 0.0949 µM, first compound 0.000949 µM) was 80.8%, the viability, T/C (second compound 0.0949 µM, first compound 0.003 µM) was 66.2% and the viability, T/C (second compound 0.0949 µM, first compound 0.00949 µM) was 45.4%. For the same compound, the viability, T/C (second compound 0.0949 µM, first compound 0.03 µM) was 38.9%, the viability, T/C (second compound 0.0949 µM, first compound 0.0949 µM) was 40% and the viability, T/C (second compound 0.0949 µM, first compound 0.3 µM) was 39%. The viability, T/C (second compound 0.3 µM, first compound 0.000949 µM) was 68.2%, the viability, T/C (second compound 0.3 µM, first compound 0.003 µM) was 65.1% and the viability, T/C (second compound 0.3 µM, first compound 0.00949 µM) was 38.7%. The viability, T/C (second compound 0.3 µM, first compound 0.03 µM) was 34.2%, the viability, T/C (second compound 0.3 µM, first compound 0.0949 µM) was 38.2% and the viability, T/C (second compound 0.3 µM, first compound 0.3 µM) was 40.1%.
